Measured values reported in the supplement of paper PMC11451515.

Key:
Details in all cases: 48 h
[1] = system: P12-Ichikawa; experiment: AUC of viability dose-response curve (% viability x log10 dose units); higher = less sensitive
Summary of the method: (§1)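 Leukemia cells adapted to each medium were seeded in 1536-well plates (500 or 1000 cells/well). They were dosed with library compounds in DMSO at 11 threefold doses, 47 μM to 0.79 nM, for 48 h at 37°C. CellTiter-Glo One luminescence was normalised per plate to DMSO and cell-free wells. Area under the curve was integrated by trapezoidal rule over log10 doses on a four-parameter log-logistic fit; curves exceeding full viability were scaled and curves failing quality control removed.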

[2] = system: NOMO1; experiment: as above
Summary of the method: as §1

[3] = system: SEM cells; experiment: as above
Summary of the method: as §1

[4] = system: SEM cells; experiment: cell viability relative to DMSO control; higher = less cytotoxic
Summary of the method: (§2)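 Leukemia cells (NOMO1 or SEM, 500 cells/well; P12-Ichikawa, 1000 cells/well) were seeded in 5 μl in 1536-well plates after at least four passages of adaptation to each medium. They received library compounds in DMSO by pin dosing, 11 threefold points from 47 μM to 0.79 nM. Luminescence with CellTiter-Glo One was read after 48 h at 37°C. Viability is stated per plate relative to DMSO wells, with cell-free wells as background.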

[5] = system: NOMO1; experiment: as above
Summary of the method: as §2

[6] = system: P12-Ichikawa; experiment: as above
Summary of the method: as §2

C=CC[N+]1([C@H]2C[C@H]3[C@@H]4CC[C@H]5C[C@H](O)[C@@H](N6CCOCC6)C[C@]5(C)[C@H]4CC[C@]3(C)[C@H]2OC(C)=O)CCCC1
AUC of viability dose-response curve
Details | [1] | [2] | [3]
HPLM + 10% dialyzed FBS | 457 | 442 | 462
RPMI 5 mM glucose + 10% FBS | 455 | 454 | 464
RPMI 5 mM glucose + 10% dialyzed FBS | 462 | 455 | 465

[4], HPLM + 10% dialyzed FBS
Details | cell viability [%]
0.000781 µM | 130
0.00234 µM | 116
0.00702 µM | 119
0.0211 µM | 125
0.0632 µM | 114
0.19 µM | 131
0.569 µM | 124
1.71 µM | 127
5.12 µM | 119
15.4 µM | 113
46.1 µM | 113

C/C(=C\C(=O)Nc1ccccc1C(=O)O)c1ccc2ccccc2c1
AUC of viability dose-response curve
Details | HPLM + 10% dialyzed FBS | RPMI 5 mM glucose + 10% FBS | RPMI 5 mM glucose + 10% dialyzed FBS
[1] | 461 | 461 | 456
[3] | 435 | 447 | 463

C\C1=N\N(C(=O)C1)C2=CC=CC=C2
AUC of viability dose-response curve
Details | [1] | [2] | [3]
HPLM + 10% dialyzed FBS | 471 | 467 | 465
RPMI 5 mM glucose + 10% FBS | 458 | 467 | 465
RPMI 5 mM glucose + 10% dialyzed FBS | 473 | 462 | 473

cell viability [%], [4]
Details | HPLM + 10% dialyzed FBS | RPMI 5 mM glucose + 10% FBS
0.000781 µM | 102 | 113
0.00234 µM | 104 | 121
0.00702 µM | 121 | 129
0.0211 µM | 136 | 119
0.0632 µM | 130 | 130
0.19 µM | 121 | 117
0.569 µM | 112 | 121
1.71 µM | 130 | 123
5.12 µM | 121 | 132
15.4 µM | 118 | 130
46.1 µM | 111 | 117

CC(C)C[C@@H](N)[C@H](O)C(=O)N[C@H](C(=O)N[C@H](C(=O)N[C@@H](CC(=O)O)C(=O)O)C(C)C)C(C)C
AUC of viability dose-response curve
Details | [1] | [2] | [3]
HPLM + 10% dialyzed FBS | 468 | 455 | 465
RPMI 5 mM glucose + 10% FBS | 433 | 462 | 446
RPMI 5 mM glucose + 10% dialyzed FBS | 450 | 463 | 477

CCN(CC)CCNC(=O)c1ccc2nc(-c3ccccc3)c(-c3ccc(CN4CCC(n5c(=O)[nH]c6ccccc65)CC4)cc3)nc2c1
AUC of viability dose-response curve
Details | [1] | [2] | [3]
HPLM + 10% dialyzed FBS | 355 | 354 | 246
RPMI 5 mM glucose + 10% FBS | 380 | 400 | 221
RPMI 5 mM glucose + 10% dialyzed FBS | 358 | 399 | 243

cell viability [%]
Details | HPLM + 10% dialyzed FBS | RPMI 5 mM glucose + 10% FBS | RPMI 5 mM glucose + 10% dialyzed FBS
[4], 0.000781 µM | 108 | 108 | 117
[4], 0.00234 µM | 116 | 106 | 112
[4], 0.00702 µM | 120 | 124 | 127
[4], 0.0211 µM | 103 | 83.8 | 92.2
[4], 0.0632 µM | 83.8 | 56.4 | 75.7
[4], 0.19 µM | 54 | 34.4 | 56.5
[4], 0.569 µM | 36.8 | 32.9 | 45.8
[4], 1.71 µM | 26.7 | 28.9 | 32.6
[4], 5.12 µM | 4.83 | 11 | 13.6
[4], 15.4 µM | 4.21 | 7.63 | 5.86
[4], 46.1 µM | 3.45 | 3.28 | 3.2
[5], 0.000781 µM | 95.1 | – | –
[5], 0.00234 µM | 124 | – | –
[5], 0.00702 µM | 152 | – | –
[5], 0.0211 µM | 134 | – | –
[5], 0.0632 µM | 112 | – | –
[5], 0.19 µM | 130 | – | –
[5], 0.569 µM | 107 | – | –
[5], 1.71 µM | 93.6 | – | –
[5], 5.12 µM | 10.6 | – | –
[5], 15.4 µM | 8.39 | – | –
[5], 46.1 µM | 4.57 | – | –

O=C1Cc2cc(CCN3CCN(c4nsc5ccccc45)CC3)c(Cl)cc2N1
AUC of viability dose-response curve
Details | [1] | [2] | [3]
HPLM + 10% dialyzed FBS | 459 | 444 | 380
RPMI 5 mM glucose + 10% FBS | 469 | 460 | 366
RPMI 5 mM glucose + 10% dialyzed FBS | 464 | 457 | 362

COc1cc([C@@H]2c3cc4c(cc3[C@H](O)[C@H]3COC(=O)[C@H]23)OCO4)cc(OC)c1OC
AUC of viability dose-response curve
Details | HPLM + 10% dialyzed FBS | RPMI 5 mM glucose + 10% FBS | RPMI 5 mM glucose + 10% dialyzed FBS
[1] | 69.5 | 70.5 | 75.2
[2] | 170 | 126 | 138

cell viability [%]
Details | [4] | [5] | [6]
HPLM + 10% dialyzed FBS, 0.000781 µM | 78.4 | 82.2 | 87.8
HPLM + 10% dialyzed FBS, 0.00234 µM | 52.4 | 54.7 | 39.1
HPLM + 10% dialyzed FBS, 0.00702 µM | 20 | 43.6 | 12.4
HPLM + 10% dialyzed FBS, 0.0211 µM | 21.5 | 37.9 | 7.37
HPLM + 10% dialyzed FBS, 0.0632 µM | 12.9 | 24.6 | 7
HPLM + 10% dialyzed FBS, 0.19 µM | 14.8 | 30.1 | 8.5
HPLM + 10% dialyzed FBS, 0.569 µM | 11.1 | 33.9 | 7.63
HPLM + 10% dialyzed FBS, 1.71 µM | 10.8 | 38.5 | 8.21
HPLM + 10% dialyzed FBS, 5.12 µM | 7.23 | 29.4 | 6.81
HPLM + 10% dialyzed FBS, 15.4 µM | 6.55 | 30.6 | 5.69
HPLM + 10% dialyzed FBS, 46.1 µM | 3.29 | 5.9 | 2.44
RPMI 5 mM glucose + 10% FBS, 0.000781 µM | 102 | 76.2 | 84.9
RPMI 5 mM glucose + 10% FBS, 0.00234 µM | 38.7 | 92.9 | 45.4
RPMI 5 mM glucose + 10% FBS, 0.00702 µM | 14.9 | 17.5 | 15.6
RPMI 5 mM glucose + 10% FBS, 0.0211 µM | 18.2 | 21.1 | 9.29
RPMI 5 mM glucose + 10% FBS, 0.0632 µM | 8.76 | 12.1 | 7.32
RPMI 5 mM glucose + 10% FBS, 0.19 µM | 10.5 | 19.2 | 7.35
RPMI 5 mM glucose + 10% FBS, 0.569 µM | 7.96 | 17.5 | 6.22
RPMI 5 mM glucose + 10% FBS, 1.71 µM | 7.03 | 18.5 | 5.7
RPMI 5 mM glucose + 10% FBS, 5.12 µM | 4.97 | 16.4 | 5.67
RPMI 5 mM glucose + 10% FBS, 15.4 µM | 4.12 | 18.5 | 4.24
RPMI 5 mM glucose + 10% FBS, 46.1 µM | 3.41 | 5.06 | 1.48
RPMI 5 mM glucose + 10% dialyzed FBS, 0.000781 µM | 79.2 | 78.5 | 84
RPMI 5 mM glucose + 10% dialyzed FBS, 0.00234 µM | 52.7 | 89.8 | 41.4
RPMI 5 mM glucose + 10% dialyzed FBS, 0.00702 µM | 16.7 | 26.2 | 19.7
RPMI 5 mM glucose + 10% dialyzed FBS, 0.0211 µM | 20.1 | 23.7 | 11.7
RPMI 5 mM glucose + 10% dialyzed FBS, 0.0632 µM | 7.53 | 16.9 | 6.34
RPMI 5 mM glucose + 10% dialyzed FBS, 0.19 µM | 9.95 | 24.8 | 8.83
RPMI 5 mM glucose + 10% dialyzed FBS, 0.569 µM | 7.34 | 20.2 | 7.96
RPMI 5 mM glucose + 10% dialyzed FBS, 1.71 µM | 6.19 | 18.2 | 7.78
RPMI 5 mM glucose + 10% dialyzed FBS, 5.12 µM | 4.79 | 17.9 | 7.21
RPMI 5 mM glucose + 10% dialyzed FBS, 15.4 µM | 3.29 | 18.9 | 5.34
RPMI 5 mM glucose + 10% dialyzed FBS, 46.1 µM | 3.02 | 6.11 | 2.45
